Each structure is given as a SMILES string.

Data on two compounds can be found in paper PMC9786284, “Synthesis and Antiproliferative Effect of Halogenated Coumarin Derivatives” (Molecules, 2022).

The subject of data set [1] is Nthy-ori-3-1 cells. As to the kind of experiment: Cell cycle analysis by flow cytometry (PI/RNase staining). It is filed as cell-based. As to conditions: control cells (Nthy-ori-3-1); 20 µM, 24 h.
A short description of data set [2]: Cyclic voltammetry in anhydrous acetonitrile. Type of data set: physicochemical. As to conditions: 100 mV s−1, Pt pseudo-reference (Fc+/0 at +0.45 V). How it is done: It has been reported that coumarins and their derivatives are able to regulate the reactive oxygen species (ROS). For example, esculetin induces cytotoxicity in pancreatic cancer cells decreasing ROS and protein levels of the ROS-dependent transcription factor NF-κB [49]. On the other end, coumarins induce the generation and accumulation of ROS in cancer cells causing cell cycle arrest and apoptotic cell death. […] Conversely, 2h produces an antiproliferative response in TPC-1 cells by scavenging ROS. In an attempt of a better understanding of the results, such compounds were explored from an electrochemical point of view by means of cyclic voltammetry in anhydrous acetonitrile.
The electrochemical properties of compounds 2h and 2k were investigated by cyclic voltammetry (CV) technique under an inert atmosphere. The measurements have been carried out at 100 mV s^−1 with a three-electrode cell using a platinum tip as a working electrode, a platinized titanium net as a counter electrode, and a platinum wire as a pseudo-reference electrode. The electrochemical measurements were performed at room temperature using an AUTOLAB PGSTAT302N (Metrohm, Herisau, Switzerland) potentiostat/galvanostat controlled with the NOVA software. All the solutions were prepared in anhydrous degassed acetonitrile with 0.1 M [n-Bu4N][PF6] as supporting electrolyte: in this condition, the Fc^+/0 redox couple is centered at +0.45 V.

Data set [3] concerns TPC-1 cells. As to the kind of experiment: Cell cycle analysis by flow cytometry (PI/RNase staining). It is filed as cell-based. The note with it: 20 µM, 24 h, compared with untreated cells. How it is done:
Among the potential mechanisms involved in the treatment of cancer, there is the arrest of the cell cycle. To detect whether the cytotoxicity of coumarins 2k and 2h resulted from cell cycle progression, the effects on the cell cycle of TPC-1 cells were analyzed by flow cytometry after labeling with PI (propidium iodide)/RNase Staining Buffer detection kit. […] According to apoptosis results, the cell cycle arrest could be responsible for the cytotoxicity in cancer cells. In the present study, it was observed that coumarin 2k determined cell arrest of TPC-1 cells in the G2/M phase, indicating the apoptotic mode of cell death and inhibition of DNA synthesis (S phase reduction). This finding is consistent with previous investigations reporting that coumarins able to induce cytotoxicity by inducing G2/M and S phases arrest in different cancer cell lines.
The cells were seeded (5 × 10^4 cells/mL) in six-well plates (Corning, Tewksbury, MA, USA). After 24 h, they were treated with coumarins (20 µM) for 24 h. Cell cycle analysis was performed by using the Invitrogen™ FxCycle™ PI/RNase Staining Solution (according to the manufacturer’s instructions, Thermo Fisher Scientific, Waltham, MA, USA), and then the DNA content was evaluated by flow cytometry (MoFloAstrios EQ, Beckman Coulter, Brea, CA, USA). The analysis of cell cycle phase distribution was accomplished via Kaluza Flow Cytometry Analysis Software (Software Version 1.2, Beckman Coulter) by setting 3 gates in each single parameter histogram: G0/G1, S, and G2/M.

Data set [4] has as its system TPC-1 cells. As to the kind of experiment: Intracellular reduced and oxidized glutathione (GSH/GSSG) by HPLC-ECD. Type of data set: cell-based. The note with it: 20 µM, 24 h, untreated cells 100%. As for the experimental part:
(§1) Redox perturbation was further investigated by measuring intracellular antioxidant species. In Nthy-ori3-1 cells, coumarin 2k at 20 µM improved the GSH concentration measured as GSH/GSSG ratio (p < 0.001), leading to values close to 200% with respect to the untreated cells (100%), while coumarin 2h increased the level of GSH but with less evidence (about 40% more than the untreated control cells, p < 0.01) (Figure 4). […] The Keap1/Nrf2/ARE system is a mechanism that plays a key role in the pathogenesis and progression of several diseases. It is a central defensive mechanism against oxidative stress.
(§2) Reduced glutathione (GSH) and oxidized glutathione (GSSG) levels were determined with high-performance liquid chromatography coupled with an electrochemical detector (HPLC-ECD), as described in previous studies. In detail, Nthy-ori3-1 and TPC-1 cells were seeded in 6-well plates at the density of 1 × 10^5 cells/2 mL and incubated for 24 h. Cells were then treated with 2k and 2h (20 µM) for 24 h. After the incubation, cells were scraped and extracted with 150 µL of 10% meta-phosphoric acid and 150 µL of 0.05% trifluoroacetic acid (TFA) (Merck, Milan, Italy) solution. After centrifugation, 10 µL of supernatant was collected for protein determination, and the remaining part was injected into the HPLC system. GSH and GSSG amounts were measured using an HPLC (Agilent 1260 infinity, Agilent Technologies, Palo Alto, CA, USA) equipped with an electrochemical detector (DECADE II Antec, Leyden, The Netherlands) and an Agilent interface 35900E. A calibration curve was created using standards of GSH and GSSG (Merck, Milan, Italy), injected with different concentrations. Data were collected and expressed as a percentage of the control cells (100%) of the ratio between GSH and GSSG normalized using µg of total proteins.

Data set [5] deals with Nthy-ori3-1 cells. The description is as above. It is filed as cell-based. The note with it: 20 µM, 24 h. How it is done: as §1, §2

As for `N#Cc1cc2cc(Br)cc(Br)c2oc1=O` [2h, 6,8-dibromo-2-oxo-2H-chromene-3-carbonitrile], the “effect on the cell cycle” value in data set [1] is “No effect on the cell cycle”. In data set [2], this compound displayed an oxidation peak potential of 0.6 V and a reduction feature potential of −1.02 V. Besides, in data set [3], the “effect on G2/M phase cell population” value is “same trend”. Also, the “GSH/GSSG ratio, percentage of untreated cells” value (“GSH/GSSG ratio, percentage” for short) in data set [4] is “up to 500%”. Besides, the “increase in level of GSH over untreated control cells” value in data set [5] (more than the untreated control) is “about 40%”.
On to `N#Cc1cc2cc(I)cc(I)c2oc1=O` [2k, 6,8-diiodo-2-oxo-2H-chromene-3-carbonitrile], for which the “effect on the cell cycle” value in data set [1] is listed as “No effect on the cell cycle”. In data set [2], this compound yielded an oxidation peak potential of 0.75 V and a reduction feature potential of −0.95 V. Further, in data set [3], the “effect on G2/M phase cell population” value is recorded as “increase in TPC-1 cells in the G2/M phase” and the “effect on S phase cell population” value was “decreases the cell population in the S phase”. Also, the “GSH/GSSG ratio, percentage” value in data set [4] was “about 200%”. The “GSH/GSSG ratio, percentage” value in data set [5] (untreated cells 100%) is “about 200%”.
